Data set [1] addresses T1, KRas G12D (Homo sapiens (Human), UniProt P01116, G12D). In words: KRas G12D Surface Plasmon Resonance (SPR) Binding Assay. The settings on record: Biacore T200, immobilized biotinylated KRAS protein, 1:1 binding model.
Target sequence in this assay (P01116-2 other isoform, or with tags, fused parts or gaps G12D): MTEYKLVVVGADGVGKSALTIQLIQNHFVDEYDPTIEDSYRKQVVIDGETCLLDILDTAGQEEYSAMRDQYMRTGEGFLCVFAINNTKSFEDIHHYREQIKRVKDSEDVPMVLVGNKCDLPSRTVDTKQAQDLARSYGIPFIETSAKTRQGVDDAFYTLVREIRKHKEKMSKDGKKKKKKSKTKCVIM
Data set [2] concerns the target T1, KRas G12D. Description: KRas G12D Binding Assay (TR-FRET displacement of Cy5 labelled tracer). The settings on record: GDP-loaded KRAS G12D (amino acids 1:169), 60 minute incubation at 22° C. On the procedure: After a 60 minute incubation at 22° C., the reaction was measured using a PerkinElmer EnVision multimode plate reader via TR-FRET dual wavelength detection, and the percent of control (POC) calculated using a ratiometric emission factor. […] The POC values were fit to a 4-parameter logistic curve and the IC50 value was determined as the concentration where the curve crosses 50 POC.
ND stands for “not determined.”
Target sequence in this assay (P01116 other isoform, or with tags, fused parts or gaps G12D): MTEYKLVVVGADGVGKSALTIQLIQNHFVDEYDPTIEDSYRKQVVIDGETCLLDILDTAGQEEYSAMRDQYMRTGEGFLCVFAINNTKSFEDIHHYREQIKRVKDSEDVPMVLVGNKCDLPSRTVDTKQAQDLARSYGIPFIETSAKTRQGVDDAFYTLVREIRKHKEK

For data set [3], the system named is KRas G12D-mediated phosphorylation of ERK in AGS cells (ATCC CRL-1739) expressing G12D. Description: Inhibition of KRas G12D-mediated Phosphorylation of ERK in AGS cells. The format is cell-based. The settings on record: Homo sapiens. On the procedure: Cells were plated in tissue culture treated 96 well plates at a density of 40,000 cells/well and allowed to attach for 12-14 hours. Diluted compounds were then added in a final concentration of 0.5% DMSO. After 3 hours, the medium was removed, 150 μL of 4.0% formaldehyde was added and the plates incubated at room temperature for 20 minutes. The plates were washed with PBS, and permeabilized with 150 μL of ice cold 100% methanol for 10 minutes. Non-specific antibody binding to the plates was blocked using […] Licor blocking buffer (Li-Cor Biotechnology, Lincoln Nebr.) for 1 hour at room temperature.
The amount of phospho-ERK was determined using an antibody specific for the phosphorylated form of ERK and compared to the amount of GAPDH. Primary antibodies used for the detection were added as follows: Phospho-ERK(Cell Signaling cs-9101) diluted 1:500 and GAPDH(Millipore MAB374) diluted 1:5000 in Licor block+0.05% Tween 20. The plates were incubated for 2 hours at room temperature. The plates were washed with PBS+0.05% Tween 20.
Secondary antibodies used to visualize primary antibodies were added as follows: Anti-rabbit-680 diluted 1:1000 and Anti-mouse-800 diluted 1:1000 both in Licor block+0.05% TweeN20, and were incubated for 1 hour at room temperature. The plates were washed with PBS +0.05% Tween 20. A 100 μL aliquot of PBS was added to each well and the plates were read on a Li-Cor Odyssey CLX plate reader.

Data set [4] can be described thus: Whole Blood Stability (WBS), human whole blood. In kind it is in vitro ADME.
Protocol: Compounds (2 μM) were incubated at 37° C. for 0, 10, 30, 60, and 120 min in a 1:1 (v/v) blood and PBS, pH 7.4. Diluted blood was preincubated for 15 min at 37° C. before the reactions were initiated with the dosing of the compound. At the end of incubation, the same volume of water was mixed with the spiked blood samples, and then stop solution (200 ng/mL tolbutamide and 200 ng/mL labetalol in MeOH) was added to precipitate protein. Mixed thoroughly. Samples were centrifuged, and supernatants were analyzed by LC-MS/MS.
Setting [5] is: phospho-ERK(Thr202/Tyr204) normalized to GAPDH, AGS cells, 3 hours, read-out: IC50.

pIC50, pKd: −log10 of the molar value. Read-outs that look alike come from different tables or passages of the source.

Consider `N#CC[C@@H]1C[C@@H]2CN(c3nc(OC[C@@]45CCCN4C[C@H](F)C5)nc4c(F)c(-c5cc(O)cc6ccccc56)ncc34)C[C@H]1N2` (racemic) [Example 339, 2-((1R,5S,6S)-3-(8-fluoro-2-((2-fluorotetrahydro-1H-pyrrolizin-7a(5H)-yl)methoxy)-7-(3-hydroxynaphthalen-1-yl)pyrido[4,3-d]pyrimidin-4-yl)-3,8-diazabicyclo[3.2.1]octan-6-yl)acetonitrile (racemic, trans)], for which, on KRas G12D [1], the pKd is 7.67. Also, the figures for the pIC50 (on KRas G12D [2]; in data set [3] (setting [5])) were 7.68 and 5.06, respectively.
Regarding `Oc1cc(-c2ncc3c(N4C[C@H]5CC[C@@H](C4)N5)nc(OCCCN4C[C@@H]5C[C@H]4CO5)nc3c2F)c2ccccc2c1` [Example 24, 4-(2-(3-((1S,4S)-2-oxa-5-azabicyclo[2.2.1]heptan-5-yl)propoxy)-4-((1R,5S)-3,8-diazabicyclo[3.2.1]octan-3-yl)-8-fluoropyrido[4,3-d]pyrimidin-7-yl)naphthalen-2-ol], the negative-log Kd (pKd) at KRas G12D [1] was 8.30. The negative-log IC50 (pIC50) at KRas G12D [2] was 8.10; in data set [3] (setting [5]), 5.54.
The like results for `Oc1cc(-c2ncc3c(N4C[C@H]5CC[C@@H](C4)N5)nc(OCCN4C[C@@H]5C[C@H]4CO5)nc3c2F)c2ccccc2c1` [Example 26, 4-(2-(2-((1S,4S)-2-oxa-5-azabicyclo[2.2.1]heptan-5-yl)ethoxy)-4-((1R,5S)-3,8-diazabicyclo[3.2.1]octan-3-yl)-8-fluoropyrido[4,3-d]pyrimidin-7-yl)naphthalen-2-ol] were, in that order, 7.55, 7.38 and 5.37.
Consider `O[C@@H]1C[C@@H]2CN(c3nc(OCC45CCCN4CCC5)nc4c(F)c(-c5cccc6cccc(Cl)c56)ncc34)C[C@H]1N2` [Example 49, (1R,5R,6R)-3-(7-(8-chloronaphthalen-1-yl)-8-fluoro-2-((tetrahydro-1H-pyrrolizin-7a(5H)-yl)methoxy)pyrido[4,3-d]pyrimidin-4-yl)-3,8-diazabicyclo[3.2.1]octan-6-ol], for which the pKd on KRas G12D [1] is 9.40. For the same compound, the pIC50 is 8.23 on KRas G12D [2] and 5.67 in data set [3] (setting [5]).
For `CC(C)N1CCC[C@H]1COc1nc(N2C[C@H]3C[C@@H](O)[C@@H](C2)N3)c2cnc(-c3cccc4cccc(Cl)c34)c(F)c2n1` [Example 153, (1R,5R,6R)-3-(7-(8-chloronaphthalen-1-yl)-8-fluoro-2-(((S)-1-isopropylpyrrolidin-2-yl)methoxy)pyrido[4,3-d]pyrimidin-4-yl)-3,8-diazabicyclo[3.2.1]octan-6-ol], on KRas G12D [1], the pKd is 7.15. Also, the pIC50 at KRas G12D [2] was 7.29; in data set [3] (setting [5]) it was 5.63.
On to `CN1CC[C@H](Oc2cccc(S(=O)(=O)F)c2)[C@H]1COc1nc(N2C[C@H]3CC[C@@H](C2)N3)c2cnc(-c3cccc4cccc(Cl)c34)c(F)c2n1` [Example 210, 3-(((2R,3S)-2-(((4-((1R,5S)-3,8-diazabicyclo[3.2.1]octan-3-yl)-7-(8-chloronaphthalen-1-yl)-8-fluoropyrido[4,3-d]pyrimidin-2-yl)oxy)methyl)-1-methylpyrrolidin-3-yl)oxy)benzenesulfonyl fluoride tris(2,2,2-trifluoroacetate)], for which the negative-log IC50 (pIC50) was 5.26 at KRas G12D [2] and under 4.78 in data set [3] (AGS, 3 h).
As for `CCc1cccc2cc(O)cc(-c3ncc4c(N5C[C@H]6CC[C@@H](C5)N6)nc(OC[C@]56CCCN5C[C@@H](F)C6)nc4c3F)c12` [Example 468, 4-(4-((1R,5S)-3,8-diazabicyclo[3.2.1]octan-3-yl)-8-fluoro-2-(((2S,7aR)-2-fluorohexahydro-1H-pyrrolizin-7a-yl)methoxy)pyrido[4,3-d]pyrimidin-7-yl)-5-ethylnaphthalen-2-ol], the results for the negative-log IC50 (pIC50) (on KRas G12D [2]; in data set [3] (setting [5])) were over 11.70 and 7.54, respectively.
For `C#Cc1c(F)ccc2cc(O)cc(-c3ncc4c(N5C[C@H]6CC[C@@H](C5)N6)nc(OC[C@@]56CCCCN5C[C@H](F)C6)nc4c3F)c12` [Example 469, 4-(4-((1R,5S)-3,8-diazabicyclo[3.2.1]octan-3-yl)-8-fluoro-2-(((2R,8aS)-2-fluorooctahydroindolizin-8a-yl)methoxy)pyrido[4,3-d]pyrimidin-7-yl)-5-ethynyl-6-fluoronaphthalen-2-ol], the negative logarithm of the IC50 (pIC50) was over 11.70 at KRas G12D [2] and 7.50 in data set [3] (setting [5]).
In the case of `C#Cc1c(F)ccc2cc(O)cc(-c3ncc4c(N5C[C@H]6CC[C@@H](C5)N6C(=O)OCOC(=O)CCCCCCCCC)nc(OC[C@@]56CCCN5C[C@H](F)C6)nc4c3F)c12` [Example 471, (Decanoyloxy)methyl (1R,5S)-3-(7-(8-ethynyl-7-fluoro-3-hydroxynaphthalen-1-yl)-8-fluoro-2-(((2R,7aS)-2-fluorotetrahydro-1H-pyrrolizin-7a(5H)-yl)methoxy)pyrido[4,3-d]pyrimidin-4-yl)-3,8-diazabicyclo[3.2.1]octane-8-carboxylate], the “% remaining in human whole blood” value in data set [4] (time point 0 min) amounted to 100%; in data set [4] (time point 10 min), 105%; in data set [4] (time point 30 min), 77%; in data set [4] (time point 60 min) it was 51%; in data set [4] (time point 120 min), 31%.

The values are drawn from US20230279025A1, “KRAS G12D INHIBITORS” (Mirati Therapeutics, Inc., priority 2020, published 2023).
